This experiment has as its system DBA/2 mice, P1534 leukemia ip, survival T/C. The experiment in a line: NCI In Vivo Anticancer Drug Screen. Data for tumor model P1534 Leukemia (intraperitoneal) in DBA/2 mice. Conditions: endpoint: mean survival time, higher = longer survival. On the procedure: The antitumor activity of compounds was measured in mice bearing transplantable tumors. Survival or tumor size were measured and the results are expressed as the measurement made in the treated group (T) divided by the measurement made in the vehicle treated control group (C). The tumor model used in this assay is P1534 Leukemia (intraperitoneal) in DBA/2 mice

Setting [1] is: dose: 31.3 mg/kg/injection, schedule: Q01DX010 (ip), vehicle: saline.
Where [2] appears, read: dose: 62.5 mg/kg/injection, schedule: Q01DX010 (ip), vehicle: saline.
[3] abbreviates: dose: 125.0 mg/kg/injection, schedule: Q01DX010 (ip), vehicle: saline.
Setting [4] is: dose: 1.25 mg/kg/injection, schedule: Q01DX010 (ip), vehicle: saline.
Setting [5] is: dose: 2.5 mg/kg/injection, schedule: Q01DX010 (ip), vehicle: saline.
[6] abbreviates: dose: 0.25 mg/kg/injection, schedule: Q01DX010 (ip), vehicle: saline.
Setting [7] is: dose: 0.5 mg/kg/injection, schedule: Q01DX010 (ip), vehicle: saline.
[8] abbreviates: dose: 1.0 mg/kg/injection, schedule: Q01DX010 (ip), vehicle: saline.
Where [9] appears, read: dose: 5.0 mg/kg/injection, schedule: Q01DX010 (ip), vehicle: saline.
The mark [10] stands for this setting: dose: 10.0 mg/kg/injection, schedule: Q01DX010 (ip), vehicle: saline.
[11] abbreviates: dose: 20.0 mg/kg/injection, schedule: Q01DX010 (ip), vehicle: saline.
The mark [12] stands for this setting: dose: 2.0 mg/kg/injection, schedule: Q01DX010 (ip), vehicle: saline.
[13] abbreviates: dose: 40.0 mg/kg/injection, schedule: Q01DX010 (ip), vehicle: saline.
Setting [14] is: dose: 12.5 mg/kg/injection, schedule: Q01DX010 (ip), vehicle: saline.
The mark [15] stands for this setting: dose: 3.13 mg/kg/injection, schedule: Q01DX010 (ip), vehicle: saline.
[16] abbreviates: dose: 6.25 mg/kg/injection, schedule: Q01DX010 (ip), vehicle: saline.
[17] abbreviates: dose: 25.0 mg/kg/injection, schedule: Q01DX010 (ip), vehicle: saline.
The mark [18] stands for this setting: dose: 100.0 mg/kg/injection, schedule: Q01DX010 (ip), vehicle: saline.
Setting [19] is: dose: 250.0 mg/kg/injection, schedule: Q01DX010 (sc), vehicle: steriod suspending solution.
Setting [20] is: dose: 500.0 mg/kg/injection, schedule: Q01DX010 (sc), vehicle: steriod suspending solution.
[21] abbreviates: dose: 250.0 mg/kg/injection, schedule: Q01DX010 (ip), vehicle: saline.

Molecules are shown by their SMILES. Where “and” joins values, the source holds several entries; their conditions need not be identical. Equal values may be shown once. Inconclusive results and toxic doses are left out.

As to `Cn1c(O)c(N=NC(N)=S)c2ccccc21`, the T/C is, setting by setting: under setting [1], 100 % of control; under setting [2], 100 % of control; under setting [3], 103 % of control.

Turning to `COC(=O)C1C(O)CCC2CN3CCc4c([nH]c5ccccc45)C3CC21` (stereo not given), the T/C (dose: 0.31 mg/kg/injection, schedule: Q01DX010 (ip), vehicle: saline) was 103 % of control; the T/C (dose: 0.63 mg/kg/injection, schedule: Q01DX010 (ip), vehicle: saline) was 103 % of control; the T/C under setting [4] was 106 % of control; the T/C under setting [5] is 103 % of control.

Take `CCC(=O)NC1=C(N2CC2)C(=O)C(NC(=O)CC)=C(N2CC2)C1=O`: the T/C is, setting by setting: (dose: 0.13 mg/kg/injection, schedule: Q01DX010 (ip), vehicle: saline) 108 % of control; under setting [6], 108 % of control; under setting [7], 100 % of control; under setting [8], 112 % of control.

Take `N=C(N)SCc1c2ccccc2c(CSC(=N)N)c2ccccc12`: the T/C under setting [9] is 100 % of control and the T/C under setting [10] was 96 % of control.

With `CN(Cc1cnc2nc(N)nc(N)c2n1)c1c(Cl)cc(C(=O)NC(CCC(=O)O)C(=O)O)cc1Cl` (stereo not given), the T/C under setting [11] is 120 % of control.

Take `C1CCNC1`: the T/C (dose: 0.19 mg/kg/injection, schedule: Q01DX010 (ip), vehicle: saline) was 93 % of control; the T/C (dose: 0.39 mg/kg/injection, schedule: Q01DX010 (ip), vehicle: saline) was 86 % of control; the T/C (dose: 1.56 mg/kg/injection, schedule: Q01DX010 (ip), vehicle: saline) is 96 % of control.

For the molecule `NC(=O)N(CCCl)N=O`, the T/C was 100 % of control under setting [7], 100 % of control under setting [8] and 86 % of control under setting [12].

As for `CN(C)c1ccc(/C=C/c2ccnc3ccccc23)cc1`, the T/C by setting is: under setting [9], 100 % of control and 108 % of control; under setting [10], 100 % of control; under setting [11], 100 % of control and 108 % of control; under setting [13], 100 % of control.

For the molecule `CC1CCOS(=O)O1` (stereo not given), the T/C is 92 % of control under setting [10] and 92 % of control under setting [11].

For `Cn1cnc([N+](=O)[O-])c1Sc1ncnc2nc[nH]c12`, under setting [14], the T/C is 96 % of control.

For the molecule `Nc1nc2n[nH]nc2c(=O)[nH]1`, the T/C is, setting by setting: (dose: 3.0 mg/kg/injection, schedule: Q01DX010 (ip), vehicle: alkali diluted with saline) 100 % of control and 115 % of control; (dose: 6.0 mg/kg/injection, schedule: Q01DX010 (ip), vehicle: alkali diluted with saline) 100 % of control and 111 % of control; (dose: 12.0 mg/kg/injection, schedule: Q01DX010 (ip), vehicle: alkali diluted with saline) 107 % of control and 113 % of control.

As to `CS(=O)(=O)OCCC(=O)N1CCN(C(=O)CCOS(C)(=O)=O)CC1`, the T/C is 107 % of control under setting [15], 103 % of control under setting [16], 119 % of control under setting [14] and 120 % of control under setting [17].

As for `CO[C@@]12[C@H](COC(N)=O)C3=C(C(=O)C(C)=C(N)C3=O)N1C[C@@H]1N[C@@H]12`, the T/C under setting [6] is 92 % of control, the T/C under setting [7] is 111 % of control, the T/C under setting [8] was 103 % of control and the T/C under setting [12] was 92 % of control.

Turning to `N=C(N)N`, the T/C was 100 % of control under setting [18]; 100 % of control (dose: 150.0 mg/kg/injection, schedule: Q01DX010 (ip), vehicle: saline); 100 % of control (dose: 215.0 mg/kg/injection, schedule: Q01DX010 (ip), vehicle: saline).

For the molecule `CSc1ncnc2nc[nH]c12`, the T/C by setting is: under setting [14], 92 % of control; under setting [18], 100 % of control.

As for `S=P(N1CC1)(N1CC1)N1CC1`, the T/C reads like this: under setting [6], 91 % of control and 99 % of control; under setting [7], 94 % of control and 100 % of control; under setting [8], 95 % of control; under setting [12], 87 % of control and 89 % of control.

For `COc1ccc2[nH]c3c(C)c4ccncc4c(C)c3c2c1`, the T/C is, setting by setting: under setting [5], 100 % of control; under setting [9], 93 % of control; under setting [10], 103 % of control; under setting [11], 117 % of control.

For the molecule `C=C(C(=O)OC1CC2CCC(C1)N2C)c1ccccc1` (stereo not given), under setting [9], the T/C is 100 % of control.

With `CC(=O)[C@H]1CC[C@H]2[C@@H]3C[C@H](C)C4=CC(=O)CC[C@]4(C)[C@H]3C(=O)C[C@]12C`, the T/C runs as follows: (dose: 6.25 mg/kg/injection, schedule: Q01DX010 (sc), vehicle: steriod suspending solution) 100 % of control; (dose: 12.5 mg/kg/injection, schedule: Q01DX010 (sc), vehicle: steriod suspending solution) 107 % of control; (dose: 25.0 mg/kg/injection, schedule: Q01DX010 (sc), vehicle: steriod suspending solution) 103 % of control; (dose: 50.0 mg/kg/injection, schedule: Q01DX010 (sc), vehicle: steriod suspending solution) 107 % of control.

For the molecule `Cn1cnc([N+](=O)[O-])c1Sc1nc(N)nc2nc[nH]c12`, the T/C is, setting by setting: under setting [4], 100 % of control and 108 % of control; under setting [5], 100 % of control and 108 % of control; under setting [9], 88 % of control; under setting [10], 88 % of control.

In the case of `C[C@@H](N)[C@@H](O)c1ccccc1`, under setting [15], the T/C was 96 % of control.

For `N#CCSc1ncnc2nc[nH]c12`, the T/C runs as follows: (dose: 15.0 mg/kg/injection, schedule: Q01DX010 (ip), vehicle: saline) 89 % of control; (dose: 30.0 mg/kg/injection, schedule: Q01DX010 (ip), vehicle: saline) 100 % of control; (dose: 60.0 mg/kg/injection, schedule: Q01DX010 (ip), vehicle: saline) 96 % of control and 100 % of control.

Turning to `CCCCCC(=O)O[C@]1(C(C)=O)CC[C@H]2[C@@H]3CCC4=CC(=O)CC[C@]4(C)[C@H]3CC[C@@]21C`, the T/C was 103 % of control under setting [19]; 100 % of control (dose: 375.0 mg/kg/injection, schedule: Q01DX010 (sc), vehicle: steriod suspending solution); 100 % of control under setting [20]; 107 % of control (dose: 750.0 mg/kg/injection, schedule: Q01DX010 (sc), vehicle: steriod suspending solution).

On to `Nc1ncccc1C(=O)O`, for which the T/C under setting [2] is 89 % of control.

For `CC[C@]1(O)C[C@H]2CN(CCc3c([nH]c4ccccc34)[C@@](C(=O)OC)(c3cc4c(cc3OC)N(C=O)[C@H]3[C@@](O)(C(=O)OC)[C@H](OC(C)=O)[C@]5(CC)C=CCN6CC[C@]43[C@@H]65)C2)C1`, the T/C is 117 % of control (dose: 15.6 micrograms/kg/injection, schedule: Q01DX010 (ip), vehicle: saline) and 114 % of control (dose: 31.3 micrograms/kg/injection, schedule: Q01DX010 (ip), vehicle: saline).

As to `CC(=O)Nc1ccc2nc3ccc(NC(C)=O)cc3[n+](-c3ccccc3)c2c1`, the T/C by setting is: under setting [1], 100 % of control; under setting [2], 103 % of control; under setting [21], 88 % of control.

Take `Clc1ccc(C(c2ccccc2Cl)C(Cl)Cl)cc1` (stereo not given): the T/C is 100 % of control (dose: 62.5 mg/kg/injection, schedule: Q01DX010 (sc), vehicle: steriod suspending solution); 100 % of control (dose: 125.0 mg/kg/injection, schedule: Q01DX010 (sc), vehicle: steriod suspending solution); 96 % of control and 100 % of control under setting [19]; 100 % of control under setting [20].

`c1ccc(CCSc2ncnc3nc[nH]c23)cc1`: the T/C under setting [3] is 100 % of control; the T/C under setting [21] is 100 % of control; the T/C (dose: 500.0 mg/kg/injection, schedule: Q01DX010 (ip), vehicle: saline) is 104 % of control.

Take `Cn1c(N)nc2nc[nH]c2c1=S`: the T/C is, setting by setting: under setting [9], 100 % of control; under setting [10], 100 % of control; under setting [11], 100 % of control; under setting [13], 100 % of control.

With `O=C1C=CC2(CCC23C=CC(=O)O3)O1` (stereo not given), the T/C was 100 % of control under setting [16]; 100 % of control under setting [14]; 106 % of control under setting [17]; 86 % of control and 110 % of control (dose: 50.0 mg/kg/injection, schedule: Q01DX010 (ip), vehicle: saline).

`Oc1cc(CN(CCCl)CCCl)c(O)cc1CN(CCCl)CCCl`: the T/C under setting [5] is 117 % of control.

Values taken from PubChem BioAssay AID314 (DTP/NCI, 2004).
